Data published in PMC8284453 (Antimicrobial Agents and Chemotherapy, 2021).
≈ marks a conversion by molar mass, not a printed value.

What was measured:
Assay in all cases: organism not typed
[1] = tested on: Enterobacterales expressing class A ESBLs; type: cell-based, E. coli, K. pneumoniae; details: 25 isolates; BLI fixed at 4 μg/ml, AMC 2:1
[2] = tested on: Enterobacterales expressing class A carbapenemases (KPC); type: cell-based, K. pneumoniae, E. coli, E. cloacae, Klebsiella oxytoca
[3] = tested on: Enterobacterales expressing class D oxacillinases (OXA-48/48-like); type: cell-based, E. coli, K. pneumoniae; details: for MIC50 / MIC90: 25 isolates, BLI fixed at 4 μg/ml, AMC 2:1

## C[C@@H](O)[C@H]1C(=O)N2C(C(=O)O)=C(S[C@H]3CC[S@@+]([O-])C3)S[C@H]12 [Sulopenem]
[1]
  MIC50: 0.12 µg/mL (≈ 0.343 µM)
  MIC90: 0.5 µg/mL (≈ 1.43 µM)
  MIC range: 0.03 to 1 µg/mL
[2]; 25 isolates, BLI fixed at 4 μg/ml, AMC 2:1
  MIC50: 32 µg/mL (≈ 91.6 µM)
[2]; 25 isolates, BLI fixed at 4 μg/ml, AMC 2:1, listed as sulopenem
  MIC90: ≥ 64 µg/mL
[2]; E. cloacae 847426 (KPC)
  MIC: ≥ 64 µg/mL
[2]; E. cloacae 847429 (KPC)
  MIC: ≥ 64 µg/mL
[2]; E. cloacae OIMGH49 (p99 AmpC, ACT-2, KPC-2, TEM-1)
  MIC: ≥ 64 µg/mL
[2]; E. coli 786978 (KPC)
  MIC: ≥ 64 µg/mL
[2]; K. oxytoca 847537 (KPC)
  MIC: ≥ 64 µg/mL
[2]; K. oxytoca 847539 (KPC)
  MIC: 4 µg/mL (≈ 11.4 µM)
[2]; K. pneumoniae 155140 (AmpC, KPC-2, SHV-12, TEM-1)
  MIC: ≥ 64 µg/mL
[2]; K. pneumoniae 845661 (KPC)
  MIC: ≥ 64 µg/mL
[2]; K. pneumoniae 845662 (KPC)
  MIC: ≥ 64 µg/mL
[2]; K. pneumoniae 845665 (KPC)
  MIC: ≥ 64 µg/mL
[2]; K. pneumoniae 845667 (KPC)
  MIC: ≥ 64 µg/mL
[2]; K. pneumoniae 845670 (KPC)
  MIC: 16 µg/mL (≈ 45.8 µM)
[2]; K. pneumoniae 845904 (KPC)
  MIC: 16 µg/mL (≈ 45.8 µM)
[2]; K. pneumoniae 847204 (KPC)
  MIC: 32 µg/mL (≈ 91.6 µM)
[2]; K. pneumoniae 847375 (KPC)
  MIC: 32 µg/mL (≈ 91.6 µM)
[2]; K. pneumoniae 847378 (KPC)
  MIC: 32 µg/mL (≈ 91.6 µM)
[2]; K. pneumoniae 847379 (KPC)
  MIC: 8 µg/mL (≈ 22.9 µM)
[2]; K. pneumoniae 847383 (KPC)
  MIC: 32 µg/mL (≈ 91.6 µM)
[2]; K. pneumoniae 847384 (KPC)
  MIC: ≥ 64 µg/mL
[2]; K. pneumoniae 847387 (KPC)
  MIC: 32 µg/mL (≈ 91.6 µM)
[2]; K. pneumoniae 847747 (KPC)
  MIC: 32 µg/mL (≈ 91.6 µM)
[2]; K. pneumoniae 848832 (KPC)
  MIC: ≥ 64 µg/mL
[2]; K. pneumoniae 848844 (KPC)
  MIC: 32 µg/mL (≈ 91.6 µM)
[2]; K. pneumoniae 897067 (KPC)
  MIC: 8 µg/mL (≈ 22.9 µM)
[2]; K. pneumoniae UMM (KPC-2, SHV-5, TEM-1)
  MIC: 16 µg/mL (≈ 45.8 µM)
[3]
  MIC50: 8 µg/mL (≈ 22.9 µM)
  MIC90: 16 µg/mL (≈ 45.8 µM)
[3]; listed as sulopenem
  MIC50: 4 to 8 µg/mL
  MIC90: 16 to 32 µg/mL
[3]; E. coli 664507 (OXA-48)
  MIC: 8 µg/mL (≈ 22.9 µM)
[3]; E. coli 664516 (OXA-48)
  MIC: 16 µg/mL (≈ 45.8 µM)
[3]; E. coli 664520 (OXA-48)
  MIC: 8 µg/mL (≈ 22.9 µM)
[3]; E. coli 664522 (OXA-48)
  MIC: 16 µg/mL (≈ 45.8 µM)
[3]; E. coli 664523 (OXA-48)
  MIC: 4 µg/mL (≈ 11.4 µM)
[3]; E. coli 664524 (OXA-48)
  MIC: 8 µg/mL (≈ 22.9 µM)
[3]; E. coli 664525 (OXA-48)
  MIC: 16 µg/mL (≈ 45.8 µM)
[3]; E. coli 664526 (OXA-48)
  MIC: 8 µg/mL (≈ 22.9 µM)
[3]; E. coli 664528 (OXA-48)
  MIC: 8 µg/mL (≈ 22.9 µM)
[3]; E. coli 787112 (OXA-48)
  MIC: 16 µg/mL (≈ 45.8 µM)
[3]; E. coli SI-422 (OXA-48)
  MIC: 4 µg/mL (≈ 11.4 µM)
[3]; E. coli VER (OXA-48)
  MIC: 4 µg/mL (≈ 11.4 µM)
[3]; K. pneumoniae 6299 (OXA-163)
  MIC: 1 µg/mL (≈ 2.86 µM)
[3]; K. pneumoniae 515746 (OXA-48), first line
  MIC: 2 µg/mL (≈ 5.72 µM)
[3]; K. pneumoniae 515746 (OXA-48), second line
  MIC: 4 µg/mL (≈ 11.4 µM)
[3]; K. pneumoniae 664438 (OXA-48)
  MIC: 8 µg/mL (≈ 22.9 µM)
[3]; K. pneumoniae 664439 (OXA-48)
  MIC: 8 µg/mL (≈ 22.9 µM)
[3]; K. pneumoniae 664509 (OXA-48)
  MIC: ≥ 64 µg/mL
[3]; K. pneumoniae 664518 (OXA-48)
  MIC: 8 µg/mL (≈ 22.9 µM)
[3]; K. pneumoniae 722870 (OXA-48)
  MIC: 8 µg/mL (≈ 22.9 µM)
[3]; K. pneumoniae BAH (OXA-204)
  MIC: 4 µg/mL (≈ 11.4 µM)
[3]; K. pneumoniae DEL (OXA-232)
  MIC: 32 µg/mL (≈ 91.6 µM)
